Legend:
[1] = test system: BAE/APJ#2 cells (bovine aortic endothelial cells expressing mouse APJ); assay: BAE/APJ#2 endothelial cell proliferation (BrdU incorporation); type: cell-based; conditions: SU1498 10 ng/ml
Description: SU1498 was included in proliferation cultures at a concentration of 10 ng/ml and results were assayed using BrdU incorporation. After growth factor incubation, BrdU was added to each well at a final concentration of 10 μM for 2 hours, cells were washed, and fixed for BrdU immunocytochemistry.
Cells were fixed in 100% ice cold methanol at 4° C. for 2 hours to overnight. Prior to staining, cells were air dried and rehydrated for 3 minutes with PBS buffer. DNA was denatured at 37° C. with 2 M HCl, and neutralized with 2 washes for 5 minutes in 0.1 M borate buffer (pH 8.5). […] FITC-labeled anti-BrdU antibody (5 μg/ml) in block was added for 1 hour at room temperature. Cells were counterstained with propidium iodide following several washes in PBS buffer. For each experiment, 4 random fields were photographed for determination of percentage BrdU labeling.

[2] = test system: mouse endothelial cells (bEnd3); assay: bEnd3 endothelial cell proliferation (BrdU incorporation); type: cell-based
Description: Similar cellular proliferation assays were performed using mouse endothelial cells (bEnd3) that constitutively express APJ. […] SU1498 was included in proliferation cultures at a 25 μM concentration, and results were assayed using BrdU incorporation.
Proliferation inhibition experiments with the bEnd3 cells also were carried out using FGF (50 ng/ml) or the FGF pathway inhibitor SU5402 (FIG. 19). SU5402 was included in proliferation cultures at a 20 μM concentration, and results were assayed using BrdU incorporation.

BAE/APJ#2 cells = conditions: 10 ng/ml in bottom chamber, 16 hours
Description: Bovine aortic endothelial cells (BAE) were cultured in DMEM supplemented with 10% fetal bovine serum (FBS) and penicillin/streptomycin. For generation of stable cell lines expressing APJ, the mouse APJ coding region was cloned into the pcDNA 3.1 vector downstream of the CMV promoter, in frame with a myc epitope at the C-terminal end of the protein, and upstream of the neomycin gene. Bovine aortic endothelial (BAE) cells were transfected with this construction using the Superfect transfection kit (Qiagen) and selected for resistance to G418 (600 μg/ml). Colonies were isolated and screened using RT-PCR for expression of mouse APJ and also by immunocytochemistry for expression of the myc epitope.
Cell migration assays were performed using Transwell cell culture migration chambers (Becton Dickinson) with 8 micron pore size. BAE/APJ#2 cells were plated in serum free conditions in 100 μl at a concentration of 1×10^5 ml in the upper chamber of the migration chamber. Following cell attachment to the membrane, 10 ng/ml of growth factor was added to the bottom chamber, in a total volume of 0.5 ml. […] Cells attached to the membrane in the lower chamber were stained with DAPI, and 3 random fields were counted for each experimental condition.

apelin expression = assay: Apelin expression in rat cardiac myocytes under cobalt chloride (hypoxia mimic), PCR; type: cell-based
Description: Because HIF-1α consensus sites are present in the apelin regulatory region, experiments were conducted to determine whether apelin expression is hypoxia responsive and regulated by HIF-1α. Upregulation of apelin expression under hypoxic conditions would be consistent with a role for apelin in promotion of tumor angiogenesis. Preliminary experiments were carried out using primary rat cardiomyocyte cells in culture and treatment with cobalt chloride. This procedure is accepted as an equivalent to culturing cells under hypoxic conditions because HIF-1α is a metal responsive transcription protein (Ladoux and Frelin, 1994; Piret et al., 2002; Maxwell and Salnikow, 2004). Fetal rat cardiac myocytes were plated and cultured in DMEM (Invitrogen, Carlsbad, Calif.) supplemented with 10% fetal calf serum and penicillin/streptomyocin at 37° C. After four days of culture, medium was removed, and cells were treated with fresh media containing 150 μM Cobalt Chloride (Piret et al., 2002). […] After 4 hours of culture, cells were harvested, and total RNA was extracted using the Trizol procedure according to the manufacturers recommendations (Invitrogen, Carlsbad, Calif.).
Following PCR, amplification products were fractionated on an agarose gel and visualized using ethidium bromide staining under ultraviolet light (FIG. 12). […]

lymphatic vessels = assay: In vivo lymphatic vessel branching assay, quail CAM; conditions: collagen disk with 50 ng apelin or 100 ng VEGF-C on CAM of 7 day quail embryos, 18 hours
Description: (§1) All experiments were carried out using chorioallantoic membranes (CAMs) of quail embryos. Quail embryos used for the lymphatic experiments were 7 days old. Collagen purified from rat tails (Bernanke and Markwald, 1982) was polymerized in 2 mm disks at a final concentration of approximately 1.6 mg/ml in standard phosphate buffered saline (PBS). The total volume of the collagen disk was approximately 10 μl. For experimental treatments, the collagen disks were supplemented with either 50 ng of apelin peptide or 100 ng of VEGF-C protein prior to polymerization at 37° C. for 30 minutes. The VEGF-C was a positive control for these experiments. (Recombinant Human VEGF-C (Cys156Ser), R&D Systems, cat # 752-vc). Apelin peptide was synthesized by Sigma-Genosys (>90% purity).
For lymphangiogenesis assays, the CAMs of 7 day quail embryos were exposed, in ovo, and the collagen disks were placed directly onto the surface of the CAM. […]
(§2) The samples were incubated with primary antibody (Prox1, Research Diagnostics, cat # RDI-102PA30, diluted to 2 μg/ml final concentration) for 4 hours at room temperature or overnight at 4° C. […] Both the lymphatic cell number as well as the number of lymphatic branches were determined.
Both blood vessels and lymphatic vessels were stained with the QH-1 antibody. […] The number of lymphatic vessels branching away from blood vessels (towards the collagen disk) were counted. […]

[3] = test system: lymphatic endothelial cells; assay: In vivo lymphatic cell number assay, quail CAM (Prox1 staining); conditions: collagen disk with 50 ng apelin or 100 ng VEGF-C on CAM of 7 day quail embryos, 18 hours
Description: as §1, with “purity). […]” for “purity).”
as §2
Assays for lymphatic cell number were carried out in areas of the CAM that were close to the location of the collagen disk as described above. Since Prox1 specifically stains lymphatic endothelial cell nuclei, the number of cells in the lymphatic branches was counted directly. […]

CC(C)c1cc(/C=C(\C#N)C(=O)NCCCc2ccccc2)cc(C(C)C)c1O [SU1498]
effect on VEGF-mediated proliferation ([1]; VEGF 10 ng/ml): partially inhibits VEGF-mediated proliferation
effect on apelin-mediated proliferation ([1]; apelin 10 ng/ml): no significant effect on apelin-mediated proliferation
effect on VEGF-mediated proliferation ([2]; SU1498 25 μM, VEGF 50 ng/ml): partially inhibits VEGF-mediated proliferation
effect on apelin-mediated proliferation ([2]; SU1498 25 μM, apelin 10 ng/ml): no significant effect on apelin-mediated proliferation

Cc1c[nH]c(/C=C2\C(=O)Nc3ccccc32)c1CCC(=O)O [SU5402]
effect on FGF-mediated proliferation ([2]; SU5402 20 μM, FGF 50 ng/ml): partially inhibited the proliferative effect of FGF
effect on apelin-stimulated cellular proliferation ([2]; SU5402 20 μM, apelin 10 ng/ml): did not have a significant effect on apelin-stimulated cellular proliferation

VEGF
cellular proliferation of endothelial cells ([2]; apelin 10 ng/ml or VEGF 50 ng/ml, 0.1 ng/ml to 1 μg/ml (FIG. 17)): proliferate upon the addition of VEGF or apelin
endothelial cell migration (cells per field) (BAE/APJ#2 cells): increase in migration

[Cl][Co][Cl] [Cobalt Chloride]
apelin expression (apelin expression; 150 μM Cobalt Chloride, 4 hours, fetal rat cardiac myocytes): significantly increased
apelin expression (apelin expression; Cobalt chloride 30 μg/ml, rat cardiac myocytes): induced

B1: VEGF-C: Recombinant Human VEGF-C (Cys156Ser), R&D Systems; positive control for lymphangiogenesis (protein, UniProt P49767 112-227, looked up, variant C156S)
Vascular endothelial growth …: AHYNTEILKSIDNEWRKTQCMPREVCIDVGKEFGVATNTFFKPPSVSVYRCGGCCNSEGLQCMNTSTSYLSKTLFEITVPLSQGPKPVTISFANHTSCRCMSKLDVYRQVHSIIRR
number of lymphatic vessels branching away from blood vessels (lymphatic vessels): positive regulator of lymphatic branching angiogenesis
lymphatic cell number (Prox1 positive nuclei) [3]: mitogenic factor for lymphatic endothelial cells

— patent US20060159676A1, “Methods for modulating angiogenesis, lymphangiogenesis, and apoptosis with apelin compositions” (priority 2005, published 2006)
